Four molecules from USRE39192E1, “Supplemented and unsupplemented tissue sealants, methods of their production and use” (American National Red Cross, priority 1990, dated 2006) can be followed below.

Series [1] can be described thus: Saturation concentration of 5-FU in water. Format: physicochemical.
Series [2] can be described thus: Release of 5-FU from FG clots. The conditions noted are these: clots containing 50 mg of solid anhydrous 5-FU.
The subject of series [3] is human ovarian carcinoma cell (OVACAR). The experiment in a line: Growth inhibition of OVCAR cells by eluates of taxol-supplemented fibrin sealant (MTT assay). The conditions noted are these: taxol in solid anhydrous form. Format: cell-based. On the technique in general: Tetrazolium dyes change colour on reduction, which living cells bring about.
Method: The kinetics of taxol delivery from fibrin sealant were initially evaluated, by incorporating taxol (0.26 mg), either as an anhydrous solid or dissolved in ethanol, into 400 μl fibrin sealant composition. The resulting supplemented fibrin matrices were then placed in 2 ml histidine buffer, and incubated at 37° C. The buffer was exchanged after two days, and again ten days later. The relative concentration of taxol in the resulting eluates determined by measuring their ability to inhibit the growth of a human ovarian carcinoma cell (OVACAR) in vitro (MacPhee et al., In Current Trends in Surgical Tissue Adhesives: Proceedings of the First International Symposium on Surgical Adhesives, R. Saltz and D. Sierra, eds. Springer-Verlag).
Briefly, 1000 OVCAR cells in 100 μl of growth medium were plated into each well of a 96 well culture plate and incubated for 24 hours. A 100 μl volume of various dilutions of the eluates was then placed into the wells (10 wells per dilution), and the plate incubated at 37° C. After five days, the number of cells in each well was measured using the MTT assay (Rapaport et al., American Journal of Clinical Pathology 97:84 (1992)). […] The resulting chromaphore is detected by spectrophotometry at 570 nm. […]
For series [4], the system named is human umbilical endothelial cells. As to the kind of experiment: Human umbilical endothelial cells embedded in FG. Format: cell-based. Conditions: within 24 hours, maintained at least 5 days. How it is done:
To study their growth, human umbilical endothelial cells, 10^5 or more cells per ml, were embedded in FG, the protein concentration of which was 4 mg/ml. The concentration of thrombin in the FG was adjusted to 0.6 NIH U/ml. The culture medium used in all of the experiments was M199 (Sigma Chemical Co., St. Louis, Mo.) supplemented with 10% fetal bovine serum, 10 μg/ml streptomycin, 100 U/ml penicillin, 1 ng/ml FGF-1 and 10 U/ml heparin.
As a control, an identical cell suspension was cultured on a surface coated with fibronectin at 10 μg/cm^2. […] FIGS. 9 and 10 show this situation at 24 and 48 hours, respectively.

The next series has as its system NIH 3T3 fibroblasts. As to the kind of experiment: Cell chemotaxis assay (modified Boyden's chamber), NIH 3T3 fibroblasts. The class given is cell-based. An excerpt:
(§1) NIH/3T3 fibroblasts at passage 126 were purchased from the American Type Culture Collection, Rockville, Md. Cultures from passages 129-133 were used in the chemotaxis assays. Cultures were propagated in DMEM supplemented with 10%. Calf serum and approximately 1% antibiotic antimycotic solution. Human dermal fibroblasts (HDFs) were purchased from Clonetics, Inc. (San Diego, Calif.) at passage 2. Cultures from passages 3-5 were used in the chemotaxis assays. Cultures were cultivated in DMEM supplemented with 20% FBS (Hyclone Laboratories, Inc., Logan, Utah) and approximately 1% antibiotic antimycotic solution (Gibco, Grand Island, N.Y.).
The procedure used to determine cellular chemotaxis was a combination of two known methodologies. A modification of Boyden's chamber was used as follows: Millicell-PCF (Millipore, Inc., Bedford, Mass.) (12.0 μm) 12.0 mm diameter inserts were placed in individual wells of 24 well plates to create the upper and lower chemotaxis chambers. Chemotaxis results were arrived at by performing checkerboard analysis for every combination of cells and growth factors. […] Briefly, cultures were trypsanized and placed in DMEM+0.1% Bovine Serum Albumin (BSA) (Sigma Chemical Co., St. Louis, Mo.) for approximately one hour at 37° C. in a 5% CO2 humidified chamber. Tow to 2.5×10^5 cells in 50 μl were added per insert to the upper chamber of the setup of the 24 well plates. Treatments were added as mentioned above. The assay was kept at 37° C. in a 5% CO2 humidified chamber for 4 hours. All combinations tested were performed in triplicate. At the end of 4 hours, the plates were removed from the incubator and the filters were stained following the protocol for staining included with the Millicell-PCT inserts. Briefly, the fluid surrounding the inside and outside of the Millicell-PCF inserts were removed. Three percent glutaraldehyde (Sigma Chemical Co., St. Louis, Mo.) was added to the outside and inside of the inserts for approximately 20 minutes. Following removal of the 3.0% glutaraldehyde, 0.5% Triton X-100 (E.M. Science, Cherry Hill, N.J.) was added for 5-7 minutes. On removal of the 0.5% Triton X-100, Fisher's Hematoxylin Solution Gill's Formulation (Fisher Scientific, Newark, Del.) No.1 was added for about 10 minutes. This solution was washed off in running distilled water for about 5 minutes. Using a cotton swab the upper side of the filter was swabbed to remove cells which had not migrated. Filters, were mounted lower side facing up on slides in Crystal Mount™ (Biomedia, Inc., Foster City, Calif.) solution and 10 random field were counted per slide both visually at 400× and at 200×using an Image Analyzing System to automate the enumeration of the cells on the underside of the filters.
(§2) As required, checkerboard analysis was carried out to determine random migration, and positive and negative chemotaxis. Growth factors were added to the upper and/or lower chambers to observe whether cells migrated towards the GF alone (chemotaxis), whether migration was random irrespective of whether the growth factor was added to the upper or lower well (chemokinesis) or whether cell migration was against the chemotactic gradient (negative chemotaxis).

In series [5] the test system is human dermal fibroblasts (HDFs). The experiment in a line: Cell chemotaxis assay (modified Boyden's chamber), human dermal fibroblasts. The class given is cell-based.
Excerpt: as §1
The procedure used to determine cellular chemotaxis was a combination of two known methodologies. A modification of Boyden's chamber was used as follows: Millicell-PCF (Millipore, Inc., Bedford, Mass.) (12.0 μm) 12.0 mm diameter inserts were placed in individual wells of 24 well plates to create the upper and lower chemotaxis chambers. Chemotaxis results were arrived at by performing checkerboard analysis for every combination of cells and growth factors. Concentrations ranging from 0.1, 1, 10, 100 ng/ml with/without added heparin (10 U/ml) were used for FGF-1, FGF-2 (no heparin) and FGF-4 with all the cell types mentioned in the materials section. Briefly, cultures were trypsanized and placed in DMEM+0.1% Bovine Serum Albumin (BSA) (Sigma Chemical Co., St. Louis, Mo.) for approximately one hour at 37° C. in a 5% CO2 humidified chamber. Tow to 2.5×10^5 cells in 50 μl were added per insert to the upper chamber of the setup of the 24 well plates. Treatments were added as mentioned above. The assay was kept at 37° C. in a 5% CO2 humidified chamber for 4 hours. All combinations tested were performed in triplicate. At the end of 4 hours, the plates were removed from the incubator and the filters were stained following the protocol for staining included with the Millicell-PCT inserts. Briefly, the fluid surrounding the inside and outside of the Millicell-PCF inserts were removed. Three percent glutaraldehyde (Sigma Chemical Co., St. Louis, Mo.) was added to the outside and inside of the inserts for approximately 20 minutes. Following removal of the 3.0% glutaraldehyde, 0.5% Triton X-100 (E.M. Science, Cherry Hill, N.J.) was added for 5-7 minutes. On removal of the 0.5% Triton X-100, Fisher's Hematoxylin Solution Gill's Formulation (Fisher Scientific, Newark, Del.) No.1 was added for about 10 minutes. This solution was washed off in running distilled water for about 5 minutes. Using a cotton swab the upper side of the filter was swabbed to remove cells which had not migrated. Filters, were mounted lower side facing up on slides in Crystal Mount™ (Biomedia, Inc., Foster City, Calif.) solution and 10 random field were counted per slide both visually at 400× and at 200×using an Image Analyzing System to automate the enumeration of the cells on the underside of the filters.
as §2

The nature of series [6]: Compatibility of TGF-β2 in Topical Fibrinogen Complex (ELISA, bio-assay). Conditions: after two weeks in TFC at 2-8° C. How it is done:
Fibrinogen and thrombin were prepared per instruction of the American Red Cross, Rockville, Md. Upon reconstitution, the protein concentration of the Topical Fibrinogen Complex, (TFC) was 120 mg/ml (the standard formulation for hemostasis). The human thrombin was reconstituted with 40 mM CaCl2 to yield a solution at 300 units/ml.
To evaluate the compatibility of transforming growth factor β2 (TGF-β2) in Topical Fibrinogen Complex, TFG-β2 (purified recombinant human protein provided by Genzyme Corp., Framingham, Mass.) was spiked into TFC at 10 and 1 μg/ml. Samples were incubated for two weeks at 2-8° C. TGF-β2 was extracted for analysis by passing the gel-like material through a narrow bore stopcock connected to two syringes.
For orientation: An ELISA detects its analyte on a solid surface through an enzyme-linked reagent.

On to `O=c1[nH]cc(F)c(=O)[nH]1` [5-FU, 5-fluorouracil], for which, in series [1], the “concentration in water saturated with 5-FU” value was 17000 µg/mL. For the same molecule, the “duration of 5-FU delivery” value in series [2] is on record as “at least 75 hours”.

Take `CC(=O)O[C@H]1C(=O)[C@@]2(C)[C@H]([C@H](OC(=O)c3ccccc3)[C@]3(O)C[C@H](OC(=O)[C@H](O)[C@@H](NC(=O)c4ccccc4)c4ccccc4)C(C)=C1C3(C)C)[C@]1(OC(C)=O)CO[C@@H]1C[C@@H]2O` [taxol, paclitaxel]: in series [3], the “time OVCAR cells were significantly inhibited” value is on record as “up to 85 days”.

Turning to fibronectin [reference compound], in series [4], the cell morphology result is given as “acquired a cobblestone shape”. Also, the “concentration of maximal chemotactic response” value (in the series with NIH 3T3 fibroblasts; in series [5]) was 20 µg/mL each time. For the same molecule, the “migrated cells (checkerboard analysis)” value is given as 69.6 +/− 12.25 in the series on NIH 3T3 fibroblasts (lower 0 μg/ml, upper 20 μg/ml); 62.0 +/− 2.616 with NIH 3T3 fibroblasts (lower 0 μg/ml, upper 50 μg/ml); 68.03 +/− 10.793 in the series with NIH 3T3 fibroblasts (lower 10 μg/ml, upper 0 μg/ml); 47.53 +/− 5.605 in the series with NIH 3T3 fibroblasts (lower 10 μg/ml, upper 10 μg/ml); 64.86 +/− 7.961 in the series on NIH 3T3 fibroblasts (lower 10 μg/ml, upper 20 μg/ml); 74.66 +/− 3.946 in the series on NIH 3T3 fibroblasts (lower 10 μg/ml, upper 50 μg/ml). The “migrated cells (checkerboard analysis)” value with NIH 3T3 fibroblasts (lower 20 μg/ml, upper 0 μg/ml) was 90.53 +/− 5.203; in the series on NIH 3T3 fibroblasts (lower 20 μg/ml, upper 10 μg/ml), 88.73 +/− 4.152; with NIH 3T3 fibroblasts (lower 20 μg/ml, upper 20 μg/ml) it was 56.9 +/− 3.289; in the series on NIH 3T3 fibroblasts (lower 20 μg/ml, upper 50 μg/ml), 76.23 +/− 1.8190; in the series on NIH 3T3 fibroblasts (lower 50 μg/ml, upper 0 μg/ml), 72.43 +/− 8.276; in the series on NIH 3T3 fibroblasts (lower 50 μg/ml, upper 10 μg/ml) it was 91.3 +/− 1.003. The “migrated cells (checkerboard analysis)” value was 63.26 +/− 3.835 in the series on NIH 3T3 fibroblasts (lower 50 μg/ml, upper 20 μg/ml); 57.46 +/− 2.287 in the series on NIH 3T3 fibroblasts (lower 50 μg/ml, upper 50 μg/ml); 62.3 +/− 3.269 in the series with NIH 3T3 fibroblasts (lower compartment 0 μg/ml, upper compartment 10 μg/ml).

B1: TGF-β2: purified recombinant human protein provided by Genzyme Corp., spiked into TFC / fibrin clot (protein, UniProt P61812 303-414, looked up)
Transforming growth factor …: ALDAAYCFRNVQDNCCLRPLYIDFKRDLGWKWIHEPKGYNANFCAGACPYLWSSDTQHSRVLSLYNTINPEASASPCCVSQDLEPLTILYYIGKTPKIEQLSNMIVKSCKCS
As to B1, in series [6], the bio-assay of extract result is “bioactive”.
